Tests used:
Assay type in all cases: cell-based
[1] = RSV NHBE CC50 384 V2 (per Ex. U); conditions: human
[2] = tested on: Respiratory syncytial virus recombinant with luciferase (RSV-Luc5) in HEp-2 cells; experiment: HEp-2 RSV-Luc5 384-well assay (EC50 RSVFLUC Hep2-384 v2, Example V); conditions: human respiratory syncytial virus, HEp-2, 72 h, read-out: RSV Hep-2 FLuc EC50 (v2) (nM) (per Ex. V)
Procedure, shortened: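 HEp-2 cells (4,000/well) infected with RSV-Luc5 at MOI 0.5 in DMEM/10% FBS with compound, 10-point 1:3 dilutions, 3 days at 37 °C. Replication read by One-Glo luminescence, normalized to remdesivir (0%) and DMSO (100%). EC50 from non-linear regression as concentration giving 50% reduction.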

[3] = tested on: Human Rhinovirus 14 (HRV14) in H1-HeLa cells; experiment: H1-HeLa HRV-CTG EC50, HRV14 (Example Z); conditions: Rhinovirus B, HRV14, 96 h, MOI 1.0, 4 days, Celltiter-Glo, read-out: HRV14 HELA EC50 (nM) (per Ex. Z)
Description: (§1) H1-Hela cell line (ATCC, Manassas, VA, Cat #CRL-1958) was maintained in Dulbecco's […] (DMEM) (Corning, New York, NY, Cat #15-018CM) supplemented with 10% fetal bovine serum (FBS) (Hyclone, Logan, UT, Cat #SH30071-03), and 1× Penicillin-Streptomycin-L-Glutamine (Coming, New York, NY, Cat #30-009-C1). Cells were passaged 2 times per week to maintain sub-confluent densities and were used for experiments at passage 5-30. The Human Rhinovirus 1B (HRV1B) (ATCC, Manassas, VA, Cat #VR-1645), Human Rhinovirus 14 (HRV14) (ATCC, Manassas, VA, Cat #VR-284), and Human Rhinovirus 16 (HRV16) (ATCC, Manassas, VA, Cat #BR-283) was obtained through ATCC. Viral infection was monitored by determining viability of H1-HeLa cells as described below.
(§2) Test molecules are prepared in 100% DMSO in 384-well polypropylene plates (Greiner, Monroe, NC, Cat #784201) with 8 compounds per plate in grouped replicates of 4 at 10 serially diluted concentrations (1:3). The serially diluted compounds were transferred to low dead volume Echo plates (Labcyte, Sunnyvale, CA, Cat #LP-0200).
(§3) The test compounds were spotted to 384-well assay plates (Greiner, Monroe, NC, Cat #781091) at 200 nL per well using an Echo acoustic dispenser (Labcyte, Sunnyvale, CA). H1-HeLa cells were harvested and suspended in DMEM (supplemented with 2% FBS and 1× Penicillin-Streptomycin-L-Glutamine) and seeded to the pre-spotted assay plates at 5,000 cells per well in 30 μL. HRV1B, HRV14, and HRV16 was diluted in DMEM (supplemented with 2% FBS and 1× Penicillin-Streptomycin-L-Glutamine) at 97.1 million Infectious Units (IU) per mL, 151 million IU per mL and 221 million IU per mL respectively. 10 μL of virus per well was added to the assay plates containing cells and compounds, for an MOI of 0.5, 1.0, and 0.25 respectively. The assay plates were incubated for 4 days at 37° C. and 5% CO2. At the end of incubation, Celltiter-Glo (Promega, Madison, WI, Cat #G7573) was prepared. The assay plates and Celltiter-Glo reagent were equilibrated to room temperature for at least 15 minutes. 40 μL per well of Celltiter-Glo reagent was added and the plates were incubated at room temperature for 15 minutes before reading the luminescence signal on an EnVision multimode plate reader (Perkin Elmer, Waltham, MA). Rupintrivir was used as positive control and DMSO was used as negative control. Values were normalized to the positive and negative controls (as 0% and 100% replication, respectively) and data was fitted using non-linear regression analysis by Gilead's dose response tool. The EC50 value for each compound was defined as the concentration reducing viral replication by 50%.

[4] = tested on: Human Rhinovirus 16 (HRV16) in H1-HeLa cells; experiment: H1-HeLa HRV-CTG EC50, HRV16 (Example Z); conditions: Rhinovirus A, HRV16, 96 h, MOI 0.25, 4 days, Celltiter-Glo, read-out: HRV 16 HELA EC50 (nM) (per Ex. Z)
Description: as §1, §2, §3

[5] = tested on: Human Rhinovirus 1B (HRV1B) in H1-HeLa cells; experiment: H1-HeLa HRV-CTG EC50, HRV1B (Example Z); conditions: Rhinovirus A, 96 h, MOI 0.5, 4 days, Celltiter-Glo, read-out: HRV 1B HELA EC50 (nM) (per Ex. Z)
Description: as §1, §2, §3

SMILES | CC50 at 3 days [1] [µM] | EC50 [2] [nM] | EC50 [3] [nM] | EC50 [4] [nM] | EC50 [5] [nM]
CCCCCCCCCCCCCCCC[C@H](COP(=O)(O)OC[C@@]1(C#N)O[C@@H](c2ccc3c(N)ncnn23)[C@H](O)[C@@H]1O)OCc1cc(F)cc(C#N)c1 [Compound 78, ((2R,3S,4R,5S)-5-(4-aminopyrrolo[2,1-f][1,2,4]triazin-7-yl)-2-cyano-3,4-dihydroxytetrahydrofuran-2-yl)methyl ((R)-2-((3-cyano-5-fluorobenzyl)oxy)octadecyl) hydrogen phosphate] | 1.2 | 439 | 38 | 66 | 24
CCCCCCCCCCCCCCCCC[C@@H](COP(=O)(O)OC[C@@]1(C#N)O[C@@H](c2ccc3c(N)ncnn23)[C@H](O)[C@@H]1O)OCc1cc(F)cc(C#N)c1 [Compound 74, ((2R,3S,4R)-5-(4-aminopyrrolo[2,1-f][1,2,4]triazin-7-yl)-2-cyano-3,4-dihydroxytetrahydrofuran-2-yl)methyl ((S)-2-((3-cyano-5-fluorobenzyl)oxy)nonadecyl) hydrogen phosphate] | 1.54 | 782 | 67 | 49 | 24
CCCCCCCCCCCCCCC[C@H](COP(=O)(O)OC[C@@]1(C#N)O[C@@H](c2ccc3c(N)ncnn23)[C@H](O)[C@@H]1O)OCc1cc(F)cc(C#N)c1 [Compound 80, ((2R,3S,4R,5S)-5-(4-aminopyrrolo[2,1-f][1,2,4]triazin-7-yl)-2-cyano-3,4-dihydroxytetrahydrofuran-2-yl)methyl ((R)-2-((3-cyano-5-fluorobenzyl)oxy)heptadecyl) hydrogen phosphate] | 2.17 | 1050 | 88 | 111 | 49
CCCCCCCCCCCCCCCCC[C@H](COP(=O)(O)OC[C@@]1(C#N)O[C@@H](c2ccc3c(N)ncnn23)[C@H](O)[C@@H]1O)OCc1cc(F)cc(C#N)c1 [Compound 36, ((2R,3S,4R,5S)-5-(4-aminopyrrolo[2,1-f][1,2,4]triazin-7-yl)-2-cyano-3,4-dihydroxytetrahydrofuran-2-yl)methyl ((R)-2-((3-cyano-5-fluorobenzyl)oxy)nonadecyl) hydrogen phosphate] | 2.74 | 353 | 113 | 112 | 102
CCCCCCCCCCCCCCCCCCC[C@H](COP(=O)(O)OC[C@@]1(C#N)O[C@@H](c2ccc3c(N)ncnn23)[C@H](O)[C@@H]1O)OCc1cc(F)cc(C#N)c1 [Compound 25, ((2R,3S,4R,5S)-5-(4-aminopyrrolo[2,1-f][1,2,4]triazin-7-yl)-2-cyano-3,4-dihydroxytetrahydrofuran-2-yl)methyl ((R)-2-((3-cyano-5-fluorobenzyl)oxy)henicosyl) hydrogen phosphate] | 31 | 2920 | 103 | 99 | 45
CCCCCCCCCCCCCCCCCCCC[C@H](COP(=O)(O)OC[C@@]1(C#N)O[C@@H](c2ccc3c(N)ncnn23)[C@H](O)[C@@H]1O)OCc1cc(F)cc(C#N)c1 [Compound 34, ((2R,3S,4R)-5-(4-aminopyrrolo[2,1-f][1,2,4]triazin-7-yl)-2-cyano-3,4-dihydroxytetrahydrofuran-2-yl)methyl ((R)-2-((3-cyano-5-fluorobenzyl)oxy)docosyl) hydrogen phosphate] | 7.25 | 1890 | 276 | 316 | 281
CCCCCCCCCCCCCCCCCCC[C@H](COP(=O)(O)OC[C@@]1(C#N)O[C@@H](c2ccc3c(N)ncnn23)[C@H](O)[C@@H]1O)OCc1ccc(C#N)c(OC(C)C)c1 [Compound 28, ((2R,3S,4R,5S)-5-(4-aminopyrrolo[2,1-f][1,2,4]triazin-7-yl)-2-cyano-3,4-dihydroxytetrahydrofuran-2-yl)methyl ((R)-2-((4-cyano-3-isopropoxybenzyl)oxy)henicosyl) hydrogen phosphate] | 7.56 | 353 | 47 | 51 | 36
CCCCCCCCCCCCCCCCCOC[C@H](COP(=O)(O)OC[C@@]1(C#N)O[C@@H](c2ccc3c(N)ncnn23)[C@H](O)[C@@H]1O)OCc1cc(F)cc(C#N)c1 [Compound 53, ((2R,3S,4R,5S)-5-(4-aminopyrrolo[2,1-f][1,2,4]triazin-7-yl)-2-cyano-3,4-dihydroxytetrahydrofuran-2-yl)methyl ((R)-2-((3-cyano-5-fluorobenzyl)oxy)-3-(heptadecyloxy)propyl) hydrogen phosphate] | 2.82 | 200 | 35 | 35 | 34
CCCCCCCCCCCCCCCCCCOC[C@H](COP(=O)(O)OC[C@@]1(C#N)O[C@@H](c2ccc3c(N)ncnn23)[C@H](O)[C@@H]1O)Oc1ccc(C#N)c(OC(C)C)c1 [Compound 23, ((2R,3S,4R,5S)-5-(4-aminopyrrolo[2,1-f][1,2,4]triazin-7-yl)-2-cyano-3,4-dihydroxytetrahydrofuran-2-yl)methyl ((R)-2-(4-cyano-3-isopropoxyphenoxy)-3-(octadecyloxy)propyl) hydrogen phosphate] | 5.4 | 71 | 9 | 7 | 4
CCCCCCCCCCCCCCCCCCOC[C@H](COP(=O)(O)OC[C@@]1(C#N)O[C@@H](c2ccc3c(N)ncnn23)[C@H](O)[C@@H]1O)OCc1ccc(C#N)c(Cl)c1 [Compound 7, ((2R,3S,4R,5S)-5-(4-aminopyrrolo[2,1-f][1,2,4]triazin-7-yl)-2-cyano-3,4-dihydroxytetrahydrofuran-2-yl)methyl ((R)-2-((3-chloro-4-cyanobenzyl)oxy)-3-(octadecyloxy)propyl) hydrogen phosphate] | 5.96 | 284 | 50 | 40 | 38
CCCCCCCCCCCCCCCCCCOC[C@H](COP(=O)(O)OC[C@@]1(C#N)O[C@@H](c2ccc3c(N)ncnn23)[C@H](O)[C@@H]1O)OCc1cc(F)cc(C#N)c1 [Compound 1, ((2R,3S,4R,5S)-5-(4-aminopyrrolo[2,1-f][1,2,4]triazin-7-yl)-2-cyano-3,4-dihydroxytetrahydrofuran-2-yl)methyl ((R)-2-((3-cyano-5-fluorobenzyl)oxy)-3-(octadecyloxy)propyl) hydrogen phosphate] | 2.4 | 229 | 8 | 8 | 4
CCCCCCCCCCCCCCCCCC[C@@H](COP(=O)(O)OC[C@@]1(C#N)O[C@@H](c2ccc3c(N)ncnn23)[C@H](O)[C@@H]1O)OCc1cc(F)cc(C#N)c1 [Compound 37, ((2R,3S,4R)-5-(4-aminopyrrolo[2,1-f][1,2,4]triazin-7-yl)-2-cyano-3,4-dihydroxytetrahydrofuran-2-yl)methyl ((S)-2-((3-cyano-5-fluorobenzyl)oxy)icosyl) hydrogen phosphate] | 3.11 | 1240 | 183 | 249 | 332

— patent publication US20250034182A1, “PHOSPHOLIPID COMPOUNDS AND METHODS OF MAKING AND USING THE SAME” (priority 2021, published 2025)
